Source: US20140130208A1, “METHODS AND MEANS TO PRODUCE ABIOTIC STRESS TOLERANT PLANTS” (VIB VZW, priority 2011, published 2014)

Assays:
[1] = test system: Arabidopsis thaliana third true leaf; experiment: Growth (kinematic) analysis of the third leaf after transfer of seedlings to mannitol- or ACC-containing medium; type: in vivo
Method: Arabidopsis seedlings were germinated and grown on nylon meshes overlaying control medium until 9 days after stratification (DAS), when the third true leaf is fully proliferating (Skirycz et al., 2010), and subsequently transferred to control or mannitol-containing medium (FIGS. 1A to 10). Kinematic analysis was performed, whereby leaves were harvested daily throughout development of leaf 3 (9-20 DAS) and based on drawings of the abaxial epidermis cell number, cell area, number of guard cells and cell division and cell expansion rates were calculated (De Veylder et al., 2001). […] Leaf and plant morphology were not altered by mannitol (FIG. 2C). Cell expansion was also affected by stress and the reduced final leaf area was a combination of fewer and smaller cells (FIG. 2D). The stomatal index, which represents the number of stomata as a fraction of the total number of cells, was reduced as well (FIG. 2E). To learn more about the mechanisms underlying the rapid reduction of cell division upon stress onset, we harvested leaf samples daily after transfer. As a measure of cellular differentiation, the ploidy distribution was examined by flow cytometry. […] In stressed leaves, 4C nuclei started to accumulate approximately one day earlier than in controls at the expense of 2C nuclei (FIG. 3A). Analogously, the number of 8C nuclei increased sharply at 14 DAS in stressed leaves, but only at 15 DAS in control samples (FIG. 3A). Again, transfer itself had no effect on ploidy levels (not shown). […] This observation was further investigated with a CYCB1;1:Dbox-GUS reporter line. Staining for CYCB1;1:Dbox-GUS activity visualizes cells at the G2-to-M transition, reflecting mitotic activity (Colón-Carmona et al., 1999). The most apparent differences were observed 48 h after transfer. […] While the relative size of the cell proliferation zone was similar in mannitol-treated leaves, the remaining proliferating cells were found in a dispersed pattern throughout this zone. […] Within a few days after transfer, division rates adapted to the new conditions and compensation effects were observed.
Seedlings of Arabidopsis thaliana (L.) Heyhn. ecotype Columbia-0 (Col-0) were grown in vitro in half-strength Murashige and Skoog medium (Murashige and Skoog, 1962), supplemented with 1% sucrose under a 16-h day (110 μmol m^−2 s^−1) and 8-h night regime. Plates were overlaid with nylon mesh (Prosep, Zaventem, Belgium) of 20 μm pore size to avoid that roots grew into the medium. Depending on the experiment, 32 or 64 seeds were equally distributed on a 150-mm diameter plate. Mutant plants were grown together with their wild-type controls on the same plate.
(§1) At 9 DAS, when the third leaf is fully proliferating, seedlings were transferred to plates containing control medium or medium supplemented with 25 mM mannitol (Sigma-Aldrich) or 5 μM ACC (Sigma-Aldrich) by gently lifting the nylon mesh with forceps. For the CDKA activity assay the transfer was done at 11 DAS; at this stage, the third leaf is still dividing and can be quickly harvested without the need for RNAlater solution (see below) that would inhibit CDKA activity. All transfers were performed 2-3 h into the day.
Growth analysis was performed on the third true leaf harvested at different time points after transfer. After clearing with 70% ethanol, leaves were mounted in lactic acid on microscopic slides. For each experiment, 8-12 leaves were photographed with a binocular, and epidermal cells (40-300) were drawn for four representative leaves with a DMLB microscope (Leica) fitted with a drawing tubus and a differential interference contrast objective. Photographs of leaves and drawings were used to measure leaf and cell area, respectively, with ImageJ v1.41o (NIH; http://rsb.info.nih.gov/ij/), from which the cell numbers were calculated. The stomatal index was defined as the percentage of stomata per all cells. […]

[2] = test system: Arabidopsis thaliana third true leaf; experiment: Ploidy analysis of leaf 3 by flow cytometry (endoreduplication onset); type: in vivo; settings: transfer at 9 DAS to 25 mM mannitol or 5 μM ACC
Method: Arabidopsis seedlings were germinated and grown on nylon meshes overlaying control medium until 9 days after stratification (DAS), when the third true leaf is fully proliferating (Skirycz et al., 2010), and subsequently transferred to control or mannitol-containing medium (FIGS. 1A to 10). Kinematic analysis was performed, whereby leaves were harvested daily throughout development of leaf 3 (9-20 DAS) and based on drawings of the abaxial epidermis cell number, cell area, number of guard cells and cell division and cell expansion rates were calculated (De Veylder et al., 2001). […] Leaf and plant morphology were not altered by mannitol (FIG. 2C). Cell expansion was also affected by stress and the reduced final leaf area was a combination of fewer and smaller cells (FIG. 2D). The stomatal index, which represents the number of stomata as a fraction of the total number of cells, was reduced as well (FIG. 2E). To learn more about the mechanisms underlying the rapid reduction of cell division upon stress onset, we harvested leaf samples daily after transfer. […]
For flow cytometry analysis, nuclei were extracted by chopping 4-32 leaves with a razor blade in 1 ml of 45 mM MgCl2, 30 mM sodium citrate, 20 mM 3-(N-morpholino)propanesulfonic acid, pH 7, and 1% Triton X-100 (Galbraith et al., 1983). […] The nuclei were analyzed with a CyFlow flow cytometer with the FloMax Software (Partec).

[3] = test system: CYCB1;1:Dbox-GUS reporter line; experiment: CYCB1;1:DBox-GUS staining of mitotic activity in leaf 3; type: in vivo, Arabidopsis thaliana; settings: 48 h after transfer to 25 mM mannitol or 5 μM ACC
Method: Arabidopsis seedlings were germinated and grown on nylon meshes overlaying control medium until 9 days after stratification (DAS), when the third true leaf is fully proliferating (Skirycz et al., 2010), and subsequently transferred to control or mannitol-containing medium (FIGS. 1A to 10). Kinematic analysis was performed, whereby leaves were harvested daily throughout development of leaf 3 (9-20 DAS) and based on drawings of the abaxial epidermis cell number, cell area, number of guard cells and cell division and cell expansion rates were calculated (De Veylder et al., 2001). […] Leaf and plant morphology were not altered by mannitol (FIG. 2C). Cell expansion was also affected by stress and the reduced final leaf area was a combination of fewer and smaller cells (FIG. 2D). The stomatal index, which represents the number of stomata as a fraction of the total number of cells, was reduced as well (FIG. 2E). To learn more about the mechanisms underlying the rapid reduction of cell division upon stress onset, we harvested leaf samples daily after transfer. As a measure of cellular differentiation, the ploidy distribution was examined by flow cytometry. […] In stressed leaves, 4C nuclei started to accumulate approximately one day earlier than in controls at the expense of 2C nuclei (FIG. 3A). […]

[4] = test system: CDKA; experiment: CDKA activity assay on protein extracted from proliferating third leaves; type: in vivo, Arabidopsis thaliana
Method: as §1
Total soluble protein was extracted from 50 leaves by adding extraction buffer (Van Leene et al., 2007) to ground samples, followed by two freeze-thaw steps and two centrifugation steps (20,817 g, 10 min, 4° C.), whereby the supernatant was collected each time. Equal amounts of total protein were incubated with p9^CKS1Hs-sepharose beads (De Veylder et al., 1997) and kinase assays were performed as described (De Veylder et al., 1997) with histone H1 as CDK substrate. To correct for the amount of CDKA protein purified by p9^CKS1Hs-sepharose beads, an aliquot of each sample was used for protein gel blot analysis with primary rabbit anti-PSTAIRE antibodies (Santa Cruz) (diluted 1:5000) and a secondary horseradish peroxidase-conjugated donkey anti-rabbit antibodies (GE-Healthcare) (diluted 1:10,000). Proteins were detected by chemiluminescence (Western Lightning Plus ECL, PerkinElmer Life Sciences). CDK activity and CDKA amount were quantified with ImageJ v1.41o. Control samples were arbitrarily set at 100%.

[5] = test system: CDKB2;1 and CYCB1;1; experiment: Expression of mitotic cell cycle genes CDKB2;1 and CYCB1;1; type: in vivo, Arabidopsis thaliana; settings: 5 μM ACC
[6] = transfer at 9 DAS to 25 mM mannitol or 5 μM ACC, leaf 3

In the case of 1-aminocyclopropane-1-carboxylate [ACC], the “ACC-related decrease in leaf area” value ([1]; ein3.1 and eil1 mutants) is reported as “comparable to that of the wild-type”, the “ACC-related decrease in leaf area” value ([1]; etr1.3, ein5.1, mkk9 and ein2.5 mutants, versus wild type) is reported as “significantly less” and the cell proliferation rates [1, 6] is reported as “rapid reduction of cell proliferation rates”. For the same substance, the stomatal index [1, 6] was “not affected”, the endoreduplication onset [2] was “no changes in endoreduplication onset” and the “number of mitotic cells (CYCB1;1:DBox-GUS activity)” value [3] was “no changes in the number of mitotic cells”. The CDKA activity reduced ([4]; ACC treatment, etr1.3 and ein5.1 mutants) was “not”, the CDKA activity ([4]; ACC treatment, wild-type and ein3.1) was “reduced” and the CDKA activity ([4]; wild type, 10 and 24 h after transfer to 25 mM mannitol or 5 μM ACC) was “decreased as early as 10 h after transfer”. The “expression of mitotic cell cycle genes CDKB2;1 and CYCB1;1” value [5] was “no difference”.
